Assays:
[1] = target: H1 (Homo sapiens, UniProt P35367); assay: H1 receptor affinity (off-target); assay type: binding
[2] = test system: muscarinic receptors; assay: Muscarinic receptor affinity; assay type: binding
[3] = test system: healthy volunteer and clinical populations; assay: Safety and tolerability in healthy volunteer and clinical populations; assay type: in vivo, human
From the text: Physical Risks: Side effects are listed in the informed consent and reviewed carefully with the subject.
(§1) Pregnant or nursing women are excluded and men and women of childbearing potential use birth control.

[4] = Randomized, double-blind, placebo-controlled single oral dose escalation study (safety, tolerability, pharmacokinetics); assay type: in vivo, human; conditions: male, human, plasma; oral administration
From the text: as §1

[5] = test system: healthy male volunteers; assay: as above; assay type: in vivo, human
From the text: as §1

[6] = test system: healthy male volunteers; assay: Placebo-controlled multiple oral dose study, once daily for 5 days; assay type: in vivo, human
From the text: as §1

[7] = target: cytochrome P450 3A4 (CYP3A4) (Homo sapiens, UniProt P08684); assay: Metabolism by cytochrome P450; assay type: in vitro ADME
[8] = test system: any CYP enzyme; assay: CYP enzyme inhibition; assay type: in vitro ADME
[9] = test system: veterans with non-remitting posttraumatic stress disorder; assay: Open label study of Compound A as adjunctive treatment to SSRI in non-remitting PTSD; assay type: in vivo, human
Procedure: The target dose is 40 mg/d, but the dose is reduced to 20 mg/d as needed due to side effects. The study medication is stored and dispensed by the TVAMC pharmacy. The baseline SSRI medication is continued throughout the 12-wks study.
Baseline Procedures and Follow-up Assessments: Subjects are assessed by the investigators or trained clinical research coordinators with telephone contacts every two weeks and the assessments (indicated in the Table below) every four weeks.
Clinician Administered PTSD Scale (CAPS; Primary Outcome): A structured clinician-administered interview is used to assess frequency and intensity of 17 symptoms of PTSD. The CAPS is further subdivided into three clusters to allow scoring for Criterion B (re-experiencing), Criterion C (avoidant behaviors) and Criterion D (hyper-arousal). […]
In addition to change scores, rates of response (≥30% decrease in CAPS) and remission ([…]) are determined Within-group effect sizes using Cohen's d for the continuous outcomes is determined. The number needed to treat (NNT) for response and remission rates is determined. […]

[10] = test system: Mice; assay: Social defeat/resident intruder paradigm, social isolation behavior; assay type: in vivo
Procedure: Mice are tested for social isolation behavior after repeated exposure (once daily for 10 days) to an aggressive resident intruder mouse in the social defeat/resident intruder paradigm as describe by Berton et al., Science (2006) 311:864-868, the contents of which are incorporated by reference. […] On the day after the last drug or vehicle treatment, the mice are placed in the open field in the presence of a resident intruder mouse and the animal's behavior recorded by videotape for 10 min. The videotapes are then scored for the total time each mouse spent during a 10 min period in specified open-field quadrants. The total time (sec) spent by mice representing each drug treatment group in the Interaction Zone in proximity to the resident intruder mouse or, in the Corner Zones, at a distance from the intruder mouse is expressed as a mean (±SEM).
In the experiment described or similarly described above, mice are subjected to exposure to an aggressive resident intruder mouse in the social defeat/resident intruder paradigm as described in Berton et al., Science (2006) 311:864-868. […] On the day after the last drug or vehicle treatment the mice are placed in the open field in the presence of a resident intruder mouse and the total time each mouse spent during a 10 min period in defined open-field quadrants in close proximity to the intruder or in isolation to the intruder is measured.

[11] = target: 5-HT2C receptor (Homo sapiens, UniProt P28335); conditions: read-out: 5-HT2C Ki
[12] = test system: Mice; conditions: chronic administration; Berton et al., Science (2006); cited from earlier work
[13] = chronic treatment 1 mg/kg IP, 30 d

Sequence of cytochrome P450 3A4 (CYP3A4) (P08684 whole entry): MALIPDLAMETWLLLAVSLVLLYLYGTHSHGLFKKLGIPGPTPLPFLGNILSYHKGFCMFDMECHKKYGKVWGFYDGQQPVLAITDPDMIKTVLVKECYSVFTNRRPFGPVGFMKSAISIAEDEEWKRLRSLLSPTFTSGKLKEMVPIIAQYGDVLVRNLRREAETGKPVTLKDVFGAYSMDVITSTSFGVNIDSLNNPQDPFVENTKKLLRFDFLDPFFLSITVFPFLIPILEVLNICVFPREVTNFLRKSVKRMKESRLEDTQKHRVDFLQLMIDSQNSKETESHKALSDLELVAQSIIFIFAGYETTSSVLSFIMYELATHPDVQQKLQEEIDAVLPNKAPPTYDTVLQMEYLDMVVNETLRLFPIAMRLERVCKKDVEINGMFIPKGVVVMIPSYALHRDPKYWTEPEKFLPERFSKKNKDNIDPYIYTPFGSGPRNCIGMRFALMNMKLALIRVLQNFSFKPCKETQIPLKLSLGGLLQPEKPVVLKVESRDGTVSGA
Sequence of 5-HT2C receptor (P28335 33-458): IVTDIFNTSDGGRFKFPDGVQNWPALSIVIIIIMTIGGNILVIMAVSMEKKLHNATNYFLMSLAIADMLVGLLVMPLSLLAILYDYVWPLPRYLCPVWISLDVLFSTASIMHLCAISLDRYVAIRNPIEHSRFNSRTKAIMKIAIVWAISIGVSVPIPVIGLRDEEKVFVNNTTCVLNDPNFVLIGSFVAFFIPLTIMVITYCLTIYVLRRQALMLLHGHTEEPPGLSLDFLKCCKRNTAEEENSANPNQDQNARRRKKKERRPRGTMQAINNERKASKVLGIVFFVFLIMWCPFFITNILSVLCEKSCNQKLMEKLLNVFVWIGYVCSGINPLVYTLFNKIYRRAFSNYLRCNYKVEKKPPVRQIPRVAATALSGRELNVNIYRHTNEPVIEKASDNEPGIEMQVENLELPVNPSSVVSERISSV
Sequence of H1 (P35367 whole entry): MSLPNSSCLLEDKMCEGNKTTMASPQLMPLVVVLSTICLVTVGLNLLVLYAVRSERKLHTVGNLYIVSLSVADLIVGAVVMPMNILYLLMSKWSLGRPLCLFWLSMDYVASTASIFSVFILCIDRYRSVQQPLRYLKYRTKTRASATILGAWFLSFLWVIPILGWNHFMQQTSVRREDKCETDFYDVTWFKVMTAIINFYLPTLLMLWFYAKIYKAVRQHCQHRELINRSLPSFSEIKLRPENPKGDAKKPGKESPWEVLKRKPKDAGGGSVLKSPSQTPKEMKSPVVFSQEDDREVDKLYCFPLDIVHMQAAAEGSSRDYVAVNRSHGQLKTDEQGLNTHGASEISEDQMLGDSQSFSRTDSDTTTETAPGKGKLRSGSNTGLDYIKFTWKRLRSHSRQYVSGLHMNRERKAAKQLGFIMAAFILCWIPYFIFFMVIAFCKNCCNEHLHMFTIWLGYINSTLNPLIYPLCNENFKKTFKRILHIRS

CN1CCN2c3c(cccc31)[C@@H]1CN(CCCC(=O)c3ccc(F)cc3)CC[C@@H]12 [Compound A]
Ki [1]: > 1000 nM
affinity for muscarinic receptors [2]: no affinity
severity of adverse events ([3]; headache, dizziness, postural tachycardia, dry mouth, gastrointestinal complaints, somnolence): mild to moderate
hyper-prolactinemia ([3]; human, in vivo): does not produce hyper-prolactinemia
sexual dysfunction ([3]; human, in vivo): no reports of sexual dysfunction
safety and tolerability ([3]; range of doses 1-140 mg): safe and well-tolerated
cardiovascular side effects such as postural hypotension ([3]; related to alpha 1A activity, to date): not been associated with any cardiovascular side effects
Tmax [4]: ~1 h
dose dependence of pharmacokinetics ([5]; oral administration of increasing doses): dose-proportional linear pharmacokentics
QTc ([5]; single oral doses 2.5-30.0 mg): no significant increase
changes in 12-lead ECG or 24-hour Holter-ECG ([5]; single oral doses 2.5-30.0 mg): no clinically significant changes
changes in vital signs or clinical laboratory ([5]; single oral doses 2.5-30.0 mg): no dose-related clinically relevant changes
serious adverse events ([5]; single oral doses 2.5-30.0 mg): no serious adverse events
severity of adverse events ([5]; single oral doses 2.5-30.0 mg): mild to moderate
safety and tolerability ([5]; single oral doses of 2.5, 5.0, 10.0, 20.0 and 30.0 mg): safe and tolerated
accumulation in plasma with repeated administration ([6]; Day 5 vs Day 1 pharmacokinetics): no accumulation
safety and tolerability ([6]; multiple oral doses of 5, 10 and 20 mg once daily for 5 days): safe and well tolerated
metabolizing enzyme [7]: metabolized predominantly by cytochrome P450 3A4 (CYP3A4)
CYP inhibition [8]: not a potent inhibitor
efficacy for treatment of PTSD ([9]; adjunctive to SSRI, 12 weeks): effective
change in rating scale scores (CAPS, QIDS-SR, CGI-I, PANSS, SDS) ([9]; baseline to end of 12-week treatment, 20-40 mg/d adjunctive to SSRI): significant decline
time spent in the Interaction Zone, treatment alone ([10]; 1 mg/kg IP once daily for 30 d, no defeat, compared with untreated control mice): did not result in differences
time spent in proximity to the intruder after exposure to the intruder paradigm ([10]; 1 mg/kg IP once daily for 30 d, compared with Compound A alone): no significant reduction
effect on social defeat behavior [10, 13]: reversal of social defeat behavior
functional anti-depressant activity [10, 13]: has functional anti-depressant activity
Ki [11]: 173 nM

CNCCC(Oc1ccc(C(F)(F)F)cc1)c1ccccc1 (stereo not drawn) [fluoxetine]
isolation behavior in social defeat/resident intruder model [12]: reversed

From patent publication US12624037B2, “Method of treating agitation, aggressive behavior, and impulse control disorder” (INTRA-CELLULAR THERAPIES, INC., priority 2012, dated 2026)
